From patent US20160060260A1, “BROMODOMAIN INHIBITORS FOR TREATING DISEASE” (Board of Regents, The University of Texas System, priority 2014, published 2016) come the findings set out here.

Each structure is given as a SMILES string.

The assay addresses T1, Recombinant human His-tagged Trim24-PHD-bromodomain (Homo sapiens, UniProt O15164).
T1 construct: Recombinant human His-tagged Trim24-PHD-bromodomain (produced in-house); made in house
T1 sequence (O15164 824-1006 limits assumed): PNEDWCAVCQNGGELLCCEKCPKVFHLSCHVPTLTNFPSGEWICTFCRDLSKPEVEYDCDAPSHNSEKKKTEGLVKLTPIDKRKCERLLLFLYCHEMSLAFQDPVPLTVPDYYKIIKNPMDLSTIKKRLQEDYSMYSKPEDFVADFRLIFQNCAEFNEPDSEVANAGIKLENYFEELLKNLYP
Nature of the assay: Trim24 AlphaScreen Assay. It counts as binding. To be noted: 5 nM Trim24 protein, 15 nM biotinylated H3K23ac (1-33aa) peptide. Put shortly:
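AlphaScreen read-out after 2 h with streptavidin donor and Ni-chelate acceptor beads at 10 ug/mL each, following 1 h room-temperature incubation of compound, His-tagged PHD-bromodomain protein and biotin-H3K23ac (1-33aa) peptide in Hepes pH 7.5 buffer with NaCl and Triton X-100. Signals normalised between no-compound and no-protein wells; IC50 from four-parameter logistic curves.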
Turning to `CCCOc1cc(C#N)cc(Oc2cc3c(cc2NS(=O)(=O)c2cn(C)c(C)n2)n(C)c(=O)n3C)c1` [Example 107, N-(6-(3-cyano-5-propoxyphenoxy)-1,3-dimethyl-2-oxo-2,3-dihydro-1H-benzo[d]imidazol-5-yl)-1,2-dimethyl-1H-imidazole-4-sulfonamide], the half-maximal inhibitory concentration (IC50) (usually the midpoint of a concentration-inhibition curve) lay in the range of 10 to 100 nM.

Regarding `CCCOc1ccc(F)c(Oc2cc3c(cc2NS(=O)(=O)c2cccnc2)n(C)c(=O)n3C)c1` [Example 135, N-(6-(2-fluoro-5-propoxyphenoxy)-1,3-dimethyl-2-oxo-2,3-dihydro-1H-benzo[d]imidazol-5-yl)pyridine-3-sulfonamide], the half-maximal inhibitory concentration (IC50) is 10 to 100 nM.

Take `Cc1nc(S(=O)(=O)Nc2cc3c(cc2Oc2cccc(OCC4CCNCC4)c2)n(C)c(=O)n3C)cn1C` [Example 229, N-(1,3-dimethyl-2-oxo-6-(3-(piperidin-4-ylmethoxy)phenoxy)-2,3-dihydro-1H-benzo[d]imidazol-5-yl)-1,2-dimethyl-1H-imidazole-4-sulfonamide]: the IC50 was in the range of 100 to 1000 nM.

Regarding `CCCOc1cc(OCCCOC)cc(Oc2cc3c(cc2NS(=O)(=O)c2ccc(OC)cc2)n(C)c(=O)n3C)c1` [Example 157, 4-methoxy-N-(6-(3-(3-methoxypropoxy)-5-propoxyphenoxy)-1,3-dimethyl-2-oxo-2,3-dihydro-1H-benzo[d]imidazol-5-yl)benzenesulfonamide], the IC50 was 100 to 1000 nM.

For the compound `Cn1cnc(S(=O)(=O)Nc2cc3c(cc2Oc2cccc(OCC4CCOC4)c2)n(C)c(=O)n3C)c1` (stereo not drawn) [Example 64, N-(1,3-dimethyl-2-oxo-6-(3-((tetrahydrofuran-3-yl)methoxy)phenoxy)-2,3-dihydro-1H-benzo[d]imidazol-5-yl)-1-methyl-1H-imidazole-4-sulfonamide], the IC50 lay in the range of 100 to 1000 nM.

Consider `Cc1cccc(S(=O)(=O)Nc2cc3c(cc2Oc2cccc(OCc4ccccc4)c2)n(C)c(=O)n3C)c1` [Example 34, N-(6-(3-(benzyloxy)phenoxy)-1,3-dimethyl-2-oxo-2,3-dihydro-1H-benzo[d]imidazol-5-yl)-3-methylbenzenesulfonamide], for which the half-inhibitory concentration (IC50) lay in the range of 100 to 1000 nM.

Consider `Cc1n[nH]c(C)c1S(=O)(=O)Nc1cc2c(cc1Oc1cccc(OCC3CC3)c1)n(C)c(=O)n2C` [Example 136, N-(6-(3-(cyclopropylmethoxy)phenoxy)-1,3-dimethyl-2-oxo-2,3-dihydro-1H-benzo[d]imidazol-5-yl)-3,5-dimethyl-1H-pyrazole-4-sulfonamide], for which the IC50 was in the range of 10 to 100 nM.

Regarding `Cn1cnc(S(=O)(=O)Nc2cc3c(cc2Oc2cccc(OCc4ccc(Cl)nc4)c2)n(C)c(=O)n3C)c1` [Example 3, N-(6-(3-((6-chloropyridin-3-yl)methoxy)phenoxy)-1,3-dimethyl-2-oxo-2,3-dihydro-1H-benzo[d]imidazol-5-yl)-1-methyl-1H-imidazole-4-sulfonamide], the IC50 was over 1000 nM.

In the case of `COCCCOc1cc(OCCCOC)cc(Oc2cc3c(cc2NS(=O)(=O)c2ccc(OC)c(OC)c2)n(C)c(=O)n3C)c1` [Example 122, N-(6-(3,5-bis(3-methoxypropoxy)phenoxy)-1,3-dimethyl-2-oxo-2,3-dihydro-1H-benzo[d]imidazol-5-yl)-3,4-dimethoxybenzenesulfonamide], the IC50 was 10 to 100 nM.

Turning to `Cn1cnc(S(=O)(=O)Nc2cc3c(cc2Oc2cccc(OCc4ccccn4)c2)n(C)c(=O)n3C)c1` [Example 28, N-(1,3-dimethyl-2-oxo-6-(3-(pyridin-2-ylmethoxy)phenoxy)-2,3-dihydro-1H-benzo[d]imidazol-5-yl)-1-methyl-1H-imidazole-4-sulfonamide], the IC50 was in the range of 100 to 1000 nM.

As to `Cc1nc(S(=O)(=O)Nc2cc3c(cc2Oc2cccc(OC(C)C)c2)n(C)c(=O)n3C)cn1C` [Example 54, N-(6-(3-isopropoxyphenoxy)-1,3-dimethyl-2-oxo-2,3-dihydro-1H-benzo[d]imidazol-5-yl)-1,2-dimethyl-1H-imidazole-4-sulfonamide], the IC50 was 100 to 1000 nM.

With `CCCOc1cc(C#N)cc(Oc2cc3c(cc2NS(=O)(=O)c2cn(C)cn2)n(C)c(=O)n3C)c1` [Example 108, N-(6-(3-cyano-5-propoxyphenoxy)-1,3-dimethyl-2-oxo-2,3-dihydro-1H-benzo[d]imidazol-5-yl)-1-methyl-1H-imidazole-4-sulfonamide], the IC50 was in the range of 10 to 100 nM.

For `Cn1cnc(S(=O)(=O)Nc2cc3c(cc2Oc2cccc(OCCCC(=O)O)c2)n(C)c(=O)n3C)c1` [Example 227, 4-(3-(1,3-dimethyl-6-(1-methyl-1H-imidazole-4-sulfonamido)-2-oxo-2,3-dihydro-1H-benzo[d]imidazol-5-yloxy)phenoxy)butanoic acid], the concentration for half-maximal inhibition (IC50) is over 1000 nM.

In the case of `Cc1c(S(=O)(=O)Nc2cc3c(cc2Oc2cccc(OCc4ccccc4)c2)n(C)c(=O)n3C)cnn1C` [Example 41, N-(6-(3-(benzyloxy)phenoxy)-1,3-dimethyl-2-oxo-2,3-dihydro-1H-benzo[d]imidazol-5-yl)-1,5-dimethyl-1H-pyrazole-4-sulfonamide], the IC50 was in the range of 100 to 1000 nM.

For `CCCOc1cc(OCCCCN2CC(O)C2)cc(Oc2cc3c(cc2NS(=O)(=O)c2ccc(OC)c(OC)c2)n(C)c(=O)n3C)c1` [Example 248, N-(6-{3-[4-(3-hydroxyazetidin-1-yl)butoxy]-5-propoxyphenoxy}-1,3-dimethyl-2-oxo-2,3-dihydro-1H-1,3-benzodiazol-5-yl)-3,4-dimethoxybenzene-1-sulfonamide], the concentration for half-maximal inhibition (IC50) was in the range of 10 to 100 nM.

On to `Cn1cnc(S(=O)(=O)Nc2cc3c(cc2Oc2cccc(OCCCC#N)c2)n(C)c(=O)n3C)c1` [Example 97, N-(6-(3-(3-cyanopropoxy)phenoxy)-1,3-dimethyl-2-oxo-2,3-dihydro-1H-benzo[d]imidazol-5-yl)-1-methyl-1H-imidazole-4-sulfonamide], for which the 50% inhibitory concentration (IC50) is 100 to 1000 nM.

For `CCCOc1cc(OCCCOC)cc(Oc2cc3c(cc2NS(=O)(=O)c2cn(C(C)CC)cn2)n(C)c(=O)n3C)c1` (stereo not drawn) [Example 148, 1-(sec-butyl)-N-(6-(3-(3-methoxypropoxy)-5-propoxyphenoxy)-1,3-dimethyl-2-oxo-2,3-dihydro-1H-benzo[d]imidazol-5-yl)-1H-imidazole-4-sulfonamide], the IC50 was 10 to 100 nM.

Turning to `Cn1cnc(S(=O)(=O)Nc2cc3c(cc2Oc2cccc(OCCCC(F)(F)F)c2)n(C)c(=O)n3C)c1` [Example 84, N-(1,3-dimethyl-2-oxo-6-(3-(4,4,4-trifluorobutoxy)phenoxy)-2,3-dihydro-1H-benzo[d]imidazol-5-yl)-1-methyl-1H-imidazole-4-sulfonamide], the half-maximal inhibitory concentration (IC50) lay in the range of 100 to 1000 nM.

On to `CCCOc1cc(OCCCCCCN)cc(Oc2cc3c(cc2NS(=O)(=O)c2cnn(C)c2C)n(C)c(=O)n3C)c1` [Example 189, N-(6-(3-((6-aminohexyl)oxy)-5-propoxyphenoxy)-1,3-dimethyl-2-oxo-2,3-dihydro-1H-benzo[d]imidazol-5-yl)-1,5-dimethyl-1H-pyrazole-4-sulfonamide], for which the 50% inhibitory concentration (IC50) fell in the range of 1 to 10 nM.

Turning to `CCCCOc1cccc(Oc2cc3c(cc2NS(=O)(=O)c2cn(C)c(C)n2)n(C)c(=O)n3C)c1` [Example 57, N-(6-(3-butoxyphenoxy)-1,3-dimethyl-2-oxo-2,3-dihydro-1H-benzo[d]imidazol-5-yl)-1,2-dimethyl-1H-imidazole-4-sulfonamide], the IC50 lay within 100 to 1000 nM.

For `Cn1c(=O)n(C)c2cc(Oc3cccc(OCc4ccccc4)c3)c(NS(=O)(=O)c3ccc4c(c3)OCO4)cc21` [Example 36, N-(6-(3-(benzyloxy)phenoxy)-1,3-dimethyl-2-oxo-2,3-dihydro-1H-benzo[d]imidazol-5-yl)benzo[d][1,3]dioxole-5-sulfonamide], the IC50 is 100 to 1000 nM.

Take `COCCCOc1cccc(Oc2cc3c(cc2NS(=O)(=O)c2cn(C)cn2)n(C)c(=O)n3C)c1` [Example 68, N-(6-(3-(3-methoxypropoxy)phenoxy)-1,3-dimethyl-2-oxo-2,3-dihydro-1H-benzo[d]imidazol-5-yl)-1-methyl-1H-imidazole-4-sulfonamide]: the half-inhibitory concentration (IC50) lay in the range of 100 to 1000 nM.

`CCCOc1cc(OCCCOC)cc(Oc2cc3c(cc2NS(=O)(=O)c2ccc(OC)c(NC(C)=O)c2)n(C)c(=O)n3C)c1` [Example 159, N-(2-methoxy-5-(N-(6-(3-(3-methoxypropoxy)-5-propoxyphenoxy)-1,3-dimethyl-2-oxo-2,3-dihydro-1H-benzo[d]imidazol-5-yl)sulfamoyl)phenyl)acetamide]: the IC50 lay within 10 to 100 nM.

As to `CCCOc1cccc(Oc2cc3c(cc2NS(=O)(=O)c2cccc(OC)c2)n(C)c(=O)n3C)c1` [Example 170, N-(1,3-dimethyl-2-oxo-6-(3-propoxyphenoxy)-2,3-dihydro-1H-benzo[d]imidazol-5-yl)-3-methoxybenzenesulfonamide], the half-inhibitory concentration (IC50) fell in the range of 100 to 1000 nM.

As to `Cc1c(S(=O)(=O)Nc2cc3c(cc2Oc2cc(OCCCCN)cc(OCC(F)(F)F)c2)n(C)c(=O)n3C)cnn1C` [Example 209, N-(6-(3-(4-aminobutoxy)-5-(2,2,2-trifluoroethoxy)phenoxy)-1,3-dimethyl-2-oxo-2,3-dihydro-1H-benzo[d]imidazol-5-yl)-1,5-dimethyl-1H-pyrazole-4-sulfonamide], the concentration for half-maximal inhibition (IC50) lay in the range of 1 to 10 nM.

Regarding `CCCOc1cc(OCCCOC)cc(Oc2cc3c(cc2NS(=O)(=O)c2cn(C(C)C)c(C)n2)n(C)c(=O)n3C)c1` [Example 139, 1-isopropyl-N-(6-(3-(3-methoxypropoxy)-5-propoxyphenoxy)-1,3-dimethyl-2-oxo-2,3-dihydro-1H-benzo[d]imidazol-5-yl)-2-methyl-1H-imidazole-4-sulfonamide], the IC50 is 10 to 100 nM.

For `CCCOc1cccc(Oc2cc3c(cc2NS(=O)(=O)c2cccc(C(=O)O)c2)n(C)c(=O)n3C)c1` [Example 208, 3-(N-(1,3-dimethyl-2-oxo-6-(3-propoxyphenxoy)-2,3-dihydro-1H-benzo[d]imidazol-5-yl)sulfamoyl)benzoic acid], the 50% inhibitory concentration (IC50) was in the range of 10 to 100 nM.
